Values quoted from earlier work in EP4772943A1, “ALKALINE AQUEOUS SOLUTION FOR SEMICONDUCTOR, METHOD FOR USE AS LOW-TOXICITY ALKALINE AQUEOUS SOLUTION FOR SEMICONDUCTOR, AND METHOD FOR PRODUCING ALKALINE AQUEOUS SOLUTION FOR SEMICONDUCTOR” (priority 2023, dated 2025).

Test system: Daphnia sp.
Conditions: OECD TG202 Daphnia sp. acute immobilization test; converted to hydroxide of the quaternary ammonium ion as 100 mass%

Q: For C[N+](C)(C)C.[OH-] [TMAH, Tetramethylammonium hydroxide], which EC50 value is on record?
A: The EC50 value was 3 µg/mL.
